According to patent US7897150B1, “Canine lymphoma cell line and uses thereof” (The Ohio State University, priority 2007, dated 2011):
Where a name gives a salt, the structure may show the parent alone.

Tested on: OSW cell line
Assay: In vitro chemosensitivity (WST-1 cytotoxicity and proliferation assay)
Format: cell-based
Settings: Canis lupus familiaris; OSW canine T-cell lymphoma cell line, 72 h treatment, WST-1 assay; read-out: inhibitory concentration 50% (IC50)
Description: 1-2×10^4 cells were seeded in 96-well plates in quadruplicates to a final volume of 200 μL/well. Cells were treated with doxorubicin hydrochloride (Ben Venue Laboratories-Novation, Bedford, Ohio, USA) or vincristine sulfate (Mayne Pharma Pty Ltd., Mulgrave VIC, Australia) at varying concentrations of drug or vehicle control for 72 h. Cell proliferation and viability was determined using the WST-1 assay, which quantifies the reduction of the tetrazolium salt WST-1 by mitochondria in viable cells. Cell number was determined from absorbance values of known numbers of cells. At various time intervals, 20 μl of WST-1 reagent (Roche, Indianapolis, Ind., USA) was added to each well and incubated for 2 to 4 h at 37° C. The absorbance of the reaction product, after background subtraction, was measured at 450 nm on a Spectra Max M2 plate reader (Molecular Devices, Sunnyvale, Calif., USA). Each experiment was repeated at least three times.
The in vitro chemosensitivity of the OSW cell line to doxorubicin and vincristine was determined.

Compound | IC50 [nM]
COc1cccc2c1C(=O)c1c(O)c3c(c(O)c1C2=O)C[C@@](O)(C(=O)CO)C[C@@H]3O[C@H]1C[C@H](N)[C@H](O)[C@H](C)O1 [Doxorubicin, doxorubicin hydrochloride] | 500
CC[C@]1(O)C[C@H]2CN(CCc3c([nH]c4ccccc34)[C@@](C(=O)OC)(c3cc4c(cc3OC)N(C=O)[C@H]3[C@@](O)(C(=O)OC)[C@H](OC(C)=O)[C@]5(CC)C=CCN6CC[C@]43[C@@H]65)C2)C1 [vincristine, vincristine sulfate] | 400
